Consider three compounds from US20120202756A1, “USE OF PRODRUGS TO AVOID GI MEDIATED ADVERSE EVENTS” (priority 2009, published 2012).

Values after ≈ are worked out from the molar mass of the structure shown. Counter-ions that a name gives are not always drawn. Like-named read-outs stand apart in the source and are kept apart here.

For data set [1] the following is noted: relative bioavailability of clindamycin vs dosing clindamycin itself, male rats, mean. The protocol: Serial tail vein blood samples were subsequently collected via an indwelling cannuala into EDTA tubes containing a stabilising cocktail (including 6 mg/mL NaF) to prevent post collection enzymic hydrolysis of the prodrug.
The test system of data set [2] is Prevotella oralis. As to conditions: clinical isolate.
Data set [3] deals with Staphylococcus saprophyticus. The conditions noted are these: antibiotic susceptible clinical isolate.
The subject of data set [4] is Clostridium novyi. The conditions noted are these: ATCC 19402.
For data set [5], the system named is Fusobacterium necrophorum. The conditions noted are these: clinical isolate.
The subject of the next data set is Prevotella bivia. As to conditions: ATCC 29303.
Data set [6] in a line: Stability in USP simulated gastric juice. In kind it is in vitro ADME. The conditions noted are these: USP SGF pH 1.1, pepsin […], prodrug 20 μg/mL. From the text: To minimize the direct inhibitory action of this drug on gastric emptying/gut motility—and resultant nausea—the prodrug should not undergo premature chemical or enzymic cleavage back to the parent drug while within the gut lumen.

Data set [7] relates to Peptostreptococcus micros. The conditions noted are these: clinical isolate.
The nature of data set [8]: Stability in simulated intestinal juice (FaSSIF). In kind it is in vitro ADME. The conditions noted are these: FaSSIF pH 6.5, pancreatin 1%, prodrug 20 μg/mL. Here is the method: To avoid direct interaction between the active drug and the gut microfloral population, the prodrug should not undergo premature chemical or enzymic cleavage back to the parent dug while within the gut lumen. To confirm this the prodrugs were incubated with USP SGF (simulated gastric fluid), FeSSIF (fed state simulated intestinal fluid) and FaSSIF (fasted state simulated intestinal fluid) and remaining prodrug and any generated active drug assayed by use of a qualified LC-MS/MS analytical method.
Method—Prodrug (20 μg/mL) in the FaSSIF cocktail comprising sodium taurocholate 3 mM, lecithin 0.75 mM, NaOH 8.7 mM, NaH2PO4. H2O 28.7 mM, NaCl 106 mM, pancreatin 1% (overall pH 6.5) was incubated for 2 h at 37° C. After acidifying the incubation to stop any reaction the amount of prodrug remaining and drug generated were determined using a qualified LC-MS/MS method.
To minimize the direct inhibitory action of this drug on gastric emptying/gut motility—and resultant nausea—the prodrug should not undergo premature chemical or enzymic cleavage back to the parent drug while within the gut lumen. To confirm this, the prodrugs were incubated with USP SGF (simulated gastric fluid), FeSSIF (fed state simulated intestinal fluid) and FaSSIF (fasted state simulated intestinal fluid) and remaining prodrug, and any generated active drug, assayed by use of a qualified LC-MS/MS analytical method.
Prodrug (20 μg/mL) in the FaSSIF cocktail comprising sodium taurocholate 3 mM, lecithin 0.75 mM, NaOH 8.7 mM, NaH2PO4. H2O 28.7 mM, NaCl 106 mM, pancreatin 1% (overall pH 6.5) was incubated for 2 h at 37° C. After acidifying the incubation to stop any reaction the amount of prodrug remaining and drug generated were determined using a qualified LC-MS/MS method.
To avoid direct interaction between the active drug and the gut, the prodrug should not undergo premature chemical or enzymic cleavage back to the parent dug while within the gut lumen. To confirm this the prodrugs were incubated with USP SGF (simulated gastric fluid), FeSSIF (fed state simulated intestinal fluid) and FaSSIF (fasted state simulated intestinal fluid) and remaining prodrug and any generated active drug assayed by use of a qualified LC-MS/MS analytical method.

The test system of another data set is Group G Streptococcus. The conditions noted are these: antibiotic-susceptible clinical isolate.
Data set [9] deals with Prevotella intermedia. The conditions noted are these: clinical isolate.
Data set [10] relates to Clostridium sordellii. The conditions noted are these: NCTC 13356.
The test system of data set [11] is Peptostreptococcus magnus. As to conditions: clinical isolate.
Data set [12] relates to Peptostreptococcus anaerobius. The data set is described as follows: MIC, clindamycin prodrugs. In kind it is cell-based. The conditions noted are these: NCTC 11460.
The test system of data set [13] is Streptococcus agalactiae. As to conditions: antibiotic-susceptable clinical isolate.
Data set [14] has as its system Streptococcus oralis. The conditions noted are these: antibiotic-susceptible clinical isolate.
Data set [15] deals with Porphyromonas assacharolyticus. As to conditions: clinical isolate.
Another data set has as its system Fusobacterium nucleatum. The data set is described as follows: microbe, parasite or virus in culture. The conditions noted are these: read-out: Minimum inhibitory concentration.
Data set [16] relates to Clostridium novyi. Kind of data set: microbe, parasite or virus in culture. The conditions noted are these: ATCC19402, read-out: Minimum inhibitory concentration.
The test system of the next data set is Veillonella spp. Kind of data set: microbe, parasite or virus in culture. As to conditions: read-out: Minimum inhibitory concentration.
For a further data set, the system named is Prevotella denticola. Kind of data set: microbe, parasite or virus in culture. The conditions noted are these: read-out: Minimum inhibitory concentration.
Data set [17] deals with Streptococcus agalactiae. The data set is described as follows: microbe, parasite or virus in culture. As to conditions: read-out: Minimum inhibitory concentration.
In data set [18] the test system is Peptostreptococcus micros. Kind of data set: microbe, parasite or virus in culture. As to conditions: Parvimonas micra, read-out: Minimum inhibitory concentration.
The subject of a further data set is Enterococcus faecium. The data set is described as follows: microbe, parasite or virus in culture. As to conditions: read-out: Minimum inhibitory concentration.
Data set [19] deals with Prevotella oralis. The data set is described as follows: microbe, parasite or virus in culture. As to conditions: Hoylesella oralis, read-out: Minimum inhibitory concentration.
Data set [20] concerns Streptococcus oralis. Kind of data set: microbe, parasite or virus in culture. As to conditions: read-out: Minimum inhibitory concentration.
Data set [21] relates to Clostridium sordellii. The data set is described as follows: microbe, parasite or virus in culture. The conditions noted are these: Paraclostridium sordellii, NCTC13356, read-out: Minimum inhibitory concentration.
The subject of the next data set is Corynebacterium jeikeium. Kind of data set: microbe, parasite or virus in culture. As to conditions: read-out: Minimum inhibitory concentration.
For data set [22], the system named is Streptococcus constellatus. Kind of data set: microbe, parasite or virus in culture. The conditions noted are these: read-out: Minimum inhibitory concentration.
Data set [23] deals with Prevotella intermedia. The data set is described as follows: microbe, parasite or virus in culture. As to conditions: read-out: Minimum inhibitory concentration.

As for `CCCC1CC(C(=O)NC(C(C)Cl)C2OC(SC)C(OC(=O)CCCC(=O)Nc3ccc(C(=O)O)cc3)C(O)C2O)N(C)C1.O=C(O)C(F)(F)F` (stereo not drawn) [Clindamycin glutaryl PABA ester, Clindamycin-2-(glutaryl-PABA) ester trifluoroacetate], the Frel in data set [1] and in [1] (listed as Clindamycin glutaryl PABA ethyl ester) was 51% in each case. Moreover, the Minimum inhibitory concentration result is “≦0.03 ug/mL” in the data set on Prevotella oralis [2]; 4 µg/mL in data set [3]; 4 µg/mL in the data set with Clostridium novyi [4]; 1 µg/mL in data set [5]; 1 µg/mL in the data set with Prevotella bivia; 8 µg/mL in data set [7]. Further, the Minimum inhibitory concentration is 2 µg/mL in the data set with Group G Streptococcus; 0.12 µg/mL in the data set on Prevotella intermedia [9]; >64 µg/mL with Clostridium sordellii [10]; 64 µg/mL in data set [11]; 32 µg/mL in data set [12]; 2 µg/mL in the data set on Streptococcus agalactiae [13]. The figures for the Minimum inhibitory concentration (in the data set with Streptococcus oralis [14]; in data set [15]) were 0.5 µg/mL and 0.12 µg/mL, respectively. Moreover, the “Simulated gastric juice (1 h, 37° C.) % active drug generated” value in data set [6] is <1%. For the same compound, the “Simulated intestinal juice (2 h, 37° C.) (FaSSIF) % active drug generated” value in data set [8] was <1%.

For the compound `CCCC1CC(C(=O)NC(C(C)Cl)C2OC(SC)C(OC(=O)CCC(=O)N[C@H](C(=O)O)C(C)C)C(O)C2O)N(C)C1` (stereo partly drawn) [Clindamycin succinyl valine ester, Clindamycin-2-[succinyl-(S)-valine]ester trifluoroacetate], the Frel in [1] was 8%. The Minimum inhibitory concentration entry with Prevotella oralis [2] was “≦0.03 ug/mL”; in [3], 1 µg/mL; in the data set on Clostridium novyi [4], 0.5 µg/mL; in data set [5], 0.12 µg/mL; with Prevotella bivia, 0.5 µg/mL; in data set [7], 2 µg/mL. Besides, the Minimum inhibitory concentration is 1 µg/mL in the data set with Group G Streptococcus; 0.12 µg/mL in the data set with Prevotella intermedia [9]; 16 µg/mL with Clostridium sordellii [10]; 16 µg/mL in data set [11]; 8 µg/mL in [12]; 1 µg/mL in the data set with Streptococcus agalactiae [13]. For the same compound, the Minimum inhibitory concentration with Streptococcus oralis [14] was 0.25 µg/mL; in data set [15] it was 0.12 µg/mL. Further, the “Simulated gastric juice (1 h, 37° C.) % active drug generated” value in data set [6] is <1%. For the same compound, the “Simulated intestinal juice (2 h, 37° C.) (FaSSIF) % active drug generated” value in data set [8] is listed as <1%.

As to `CCC[C@@H]1C[C@@H](C(=O)N[C@@H]([C@H]2O[C@H](SC)[C@H](O)[C@@H](O)[C@H]2O)[C@H](C)Cl)N(C)C1` [Clindamycin, clindamycin, reference compound], the MIC in the data set with Fusobacterium nucleatum is ≤ 0.03 µg/mL; with Clostridium novyi [16], ≤ 0.03 µg/mL; in the data set on Veillonella spp., ≤ 0.03 µg/mL; with Prevotella denticola it was ≤ 0.03 µg/mL; with Streptococcus agalactiae [17], ≤ 0.03 µg/mL; in data set [18], 0.06 µg/mL (≈ 0.141 µM). In addition, the MIC in the data set on Enterococcus faecium was 32 µg/mL (≈ 75.3 µM); with Prevotella oralis [19], ≤ 0.03 µg/mL; with Streptococcus oralis [20], ≤ 0.03 µg/mL; in the data set with Clostridium sordellii [21] it was 0.5 µg/mL (≈ 1.18 µM); in the data set on Corynebacterium jeikeium, > 64 µg/mL; in [22], ≤ 0.03 µg/mL. In addition, in the data set on Prevotella intermedia [23], the MIC was ≤ 0.03 µg/mL.
